Laboratory results taken from patent US20110191867A1.

Assays:
[1] = test system: serum antibodies of test subjects
[2] = test system: serum antibodies of test subjects; details: serum of 8 persons

Row | Substance | comparison of the cyclic and linear peptide, reactivity with sera [1] | reaction with serum of test subject [1] | reactivity with sera of test subjects [1] | immune responses of serum antibodies against the peptides [2]
1 | Biotin-aminocaproyl-RPKVRDQ [Peptide 3C] | more reactive with low signals with other subjects | higher reaction | Strong responses were observed from the serum of test subjects S5B | –
2 | Biotin-aminocaproyl-SRPRVRNIP [Peptide 2B] | – | high reaction | much weaker reactions | especially effective in binding with certain antibodies
